Data set [1] has as its system HIV. Description: In vitro antiviral assay for HIV. As to conditions: Human immunodeficiency virus 1, read-out: Antiviral Activities (EC50, μM) HIV, in vitro; (T) after a value means toxic. In kind it is cell-based, human immunodeficiency virus. As to the method: (§1) The antiviral assays for HBV, (Doong et al., 1991, Proc. Natl. Acad. Sci. U.S.A. 88:8495-8499) HSV-1, (Bastow et al., 1983, Antimicrob. Agents Chemother. 23: 914-917) HSV-2, (Bastow et al., 1983, Antimicrob. Agents Chemother. 23:914-917) EBV, (Yao et al., 1993, Antimicrob. Agents Chemother. 37:1420-1425), CMV (Andreoni et al., 2002, J. Med. Virol. 67:33-40) and HIV (Mellors et al., 1992, Mol. Pharmacol. 41: 446-451) were performed according to the previously reported procedures. Anti-HCV activities were tested in Huh-Luc/neo cell line. Cells were seeded into 48-well plates and grown until confluent. Different concentrations of drugs were added into media (DMEM, 10% dFBS) and incubated for 3 days. At the end of 3-day treatment, medium were removed and 50 μl of Passive lysis buffer (Promega) were added. Cell lysate was shaken at room temperature for 15 min. 30 μl/well of cell lysate was transferred to another 96-well plate, 100 μl/well of luciferase activity assay substrate was added into plate and read by a luminometer (Amersham) immediately.

Data set [2] is described as follows: Cell cytotoxicity assay on MT-2 cells. In kind it is cell-based. As to conditions: human, read-out: Cytotoxity (ID50, μM) MT-2. Here is the method:
(§2) Cytotoxicities of test compounds on MT-2 (Mellors et al., 1992 Mol. Pharmacol. 41:446-451) and CEM (Grove et al., 1995, Cancer Res. 55:3008-3011) cells were determined according to the previously reported procedures. Hepg2 cells were seeded at a density of 10^4 cells/ml/well in 24-well plates and cultured in MEME supplemented with 10% FBS at 37° C. and 5% CO2. Each test compound at different concentrations was added on the second day of the culture and the cells were incubated for another 3 days. At the end of the incubation period, the medium was removed and 0.5 ml of 0.5% methylene blue in 50% ethanol (v/v) was added to each well and set at room temperature for 30-60 minutes. The methylene blue was removed; the plates were washed with water and allowed to air dry. Once dry, 1% sarcosyl was added to dissolve the stained cell layer. The absorbance at 595 nm was measured with a microplate reader (Molecular Devices Corp. Sunnyvale, Calif.). The cytotoxicity to CEM cell was calculated as described previously (Grove et al., 1995, Cancer Res. 55 (14): 3008-3011).

The test system of data set [3] is HCV. Put plainly: Anti-HCV activity in Huh-Luc/neo cell line, luciferase activity after 3-day treatment. In kind it is cell-based, Hepatitis C virus. As to conditions: Hepatitis C virus, 72 h, Huh-Luc/neo cells, 3 days; for EC50: given as a bound only, read-out: Antiviral Activities (EC50, μM) HCV. As to the method:
as §1

Data set [4] in a line: Cell cytotoxicity assay on CEM cells. It is filed as cell-based. To be noted: human, read-out: Cytotoxity (ID50, μM) CEM. As to the method: as §2
For data set [5], the system named is HSV-1. Description: In vitro antiviral assay for HSV-1. In kind it is cell-based, Herpes Simplex Virus 1. As to conditions: Human alphaherpesvirus 1, read-out: Antiviral Activities (EC50, μM) HSV-1. Here is the method:
as §1

The subject of data set [6] is EBV. Description: In vitro antiviral assay for EBV. In kind it is cell-based, Epstein-Barr Virus. To be noted: human gammaherpesvirus 4, read-out: Antiviral Activities (EC50, μM) EBV. Here is the method:
as §1

The test system of data set [7] is HSV-2. Description: In vitro antiviral assay for HSV-2. As to conditions: Human alphaherpesvirus 2, read-out: Antiviral Activities (EC50, μM) HSV-2. In kind it is cell-based, Herpes Simplex Virus 2. Here is the method: as §1
Data set [8] has as its system HBV. Put plainly: In vitro antiviral assay for HBV (Table 1). It is filed as cell-based, Hepatitis B virus. As to conditions: Hepatitis B virus, read-out: Antiviral Activities (EC50, μM) HBV. As to the method: as §1
Where [9] appears, read: read-out: HCV percent of inhibition.

What is called EC50 is the midpoint of the concentration-response curve. Usually melting point stands for the temperature, or range, at which the solid turns liquid. For `O=C(O)c1cc2ccc3c(c2c(-c2ccc4c(c2)OCO4)c1COCc1ccccc1)OCO3` [Compound 5, 9-Benzo[1,3]dioxol-5-yl-8-benzyloxymethyl-naphtho[1,2-d][1,3]dioxole-7-carboxylic acid], the melting point lay within 219 to 221 °C. Also, in [1], the half-maximal effective concentration (EC50) was above 48 µM. In data set [2], the IC50 was 48 µM. Also, the EC50 in [3] was above 10 µM. Besides, the IC50 in data set [4] is above 50 µM. Further, in [5], the concentration for a half-maximal effect (EC50) is above 25 µM. Moreover, in [6], the EC50 is above 20 µM. In [7], the EC50 was above 25 µM. Also, the concentration giving a half-maximal response (EC50) in data set [8] is above 10 µM.
One may read the inhibition as the percentage by which the read-out fell short of the control. Regarding `CN1Cc2cc3ccc4c(c3c(-c3ccc5c(c3)OCO5)c2C1=O)OCO4` [Compound 17, 10-Benzo[1,3]dioxol-5-yl-8-methyl-7,8-dihydro-1,3-dioxa-8-aza-dicyclopenta[a,g]naphthalen-9-one], the melting point was in the range of 242 to 244 °C. For the same compound, in [1], the EC50 was above 26 µM. Besides, the IC50 in data set [2] was found to be 26 µM. For the same compound, the inhibition at 3 µM in data set [3] (at 3 μM, read-out: HCV percent of inhibition) is 29%. The IC50 in [4] worked out at 27 µM. In addition, the EC50 in [5] was found to be 14 µM. Moreover, in data set [6], the EC50 is above 20 µM. Further, the half-maximal effective concentration (EC50) in [7] worked out at 14 µM. For the same compound, the EC50 in [8] was above 10 µM.
Turning to `CN1Cc2c(cc3ccc4c(c3c2-c2ccc3c(c2)OCO3)OCO4)C1=O` [Compound 19, 10-Benzo[1,3]dioxol-5-yl-8-methyl-8,9-dihydro-1,3-dioxa-8-aza-dicyclopenta[a,g]naphthalen-7-one], the melting point lay within 234 to 236 °C. Also, the 50% effective concentration (EC50) in data set [1] is above 8 µM. Further, the IC50 in data set [2] was determined as 8 µM. Also, the EC50 in data set [3] is above 3 µM. For the same compound, in data set [4], the IC50 was 6 µM. For the same compound, the EC50 in data set [5] came to 0.67 µM. In addition, in data set [6], the EC50 is above 20 µM. Also, the concentration giving a half-maximal response (EC50) in data set [7] came out at 1 µM. Besides, the concentration for a half-maximal effect (EC50) in [8] came out at 1.6 µM.
As to `O=C1c2cc3ccc4c(c3c(-c3ccc5c(c3)OCO5)c2CN1CCCO)OCO4` [Compound 21, 10-Benzo[1,3]dioxol-5-yl-8-(3-hydroxy-propyl)-8,9-dihydro-1,3-dioxa-8-aza-dicyclopenta[a,g]naphthalen-7-one], the melting point fell in the range of 213 to 215 °C. In data set [1], the 50% effective concentration (EC50) came out at 5 µM. Besides, the IC50 in data set [2] is 22 µM. In data set [3] (setting [9]), the inhibition at 10 µM came to 58%. The IC50 in data set [4] is 22 µM. The EC50 in data set [5] amounted to 5 µM. In [6], the 50% effective concentration (EC50) was above 20 µM. In addition, the half-maximal effective concentration (EC50) in data set [7] was 7 µM. In addition, the EC50 in data set [8] was above 20 µM.
With `COC1=NC(=O)c2c1cc1ccc3c(c1c2-c1ccc2c(c1)OCO2)OCO3` [Compound 23, 10-Benzo[1,3]dioxol-5-yl-7-methoxy-1,3-dioxa-8-aza-dicyclopenta[a,g]naphthalen-9-one], the melting point is 306 to 308 °C.
For the compound `CCOC(=O)c1c(C(=O)OCC)c(-c2ccc3c(c2)OCO3)c2c3c(ccc2c1OC)OCO3` [Compound 35, 9-Benzo[1,3]dioxol-5-yl-6-methoxy-naphtho[1,2-d][1,3]dioxole-7,8-dicarboxylic acid diethyl ester], the concentration giving a half-maximal response (EC50) in [1] is above 24 µM; in data set [5], above 50 µM; in data set [6], above 20 µM; in data set [7], above 50 µM; in data set [8], above 20 µM. Besides, the values for the IC50 in data set [2] and in data set [4] were 24 µM and above 100 µM, respectively. In [3] (setting [9]), the inhibition at 10 µM came to 60%.
With `NC(=O)c1cc2ccc3c(c2c(-c2ccc4c(c2)OCO4)c1C(N)=O)OCO3` [Compound 36, 9-Benzo[1,3]dioxol-5-yl-naphtho[1,2-d][1,3]dioxole-7,8-dicarboxylic acid diamide], the EC50 was above 100 µM in [1]; above 10 µM in data set [3]; above 50 µM in data set [5]; above 20 µM in data set [6]; above 50 µM in [7]; above 20 µM in data set [8]. Besides, the IC50 in data set [2] and in data set [4] was above 100 µM throughout.

Values taken from patent publication US7754718B2 (priority 2004, dated 2010).
